Assay results published in patent US20210052703A1 (SHANGHAI BENEMAE PHARMACEUTICAL CORPORATION, priority 2018, published 2021).

Legend:
[1] = tested on: male diet induced obesity (DIO) mice; details: male DIO mice; 100 μg/kg; X ± SE
Description: (§1) Five minutes after subcutaneous injection, gavage was conducted using 5% carbon powder suspension (in 2% carboxymethylcellulose solution) at 1.5 ml/100 g body weight. […] The stomach was wiped dry with filter paper and weighed for the gross weight of the stomach. Then the content of the stomach was removed and the stomach was weighed for the net weight. The respective distance from the pyloric sphincter to the front of carbon powder suspension and to the distal end of the large intestine was measured. • propelling distance of carbon powder in the intestine (cm)=distance from pylorus to the proximal end of carbon powder; • mass of carbon powder gavaged=concentration of carbon powder suspension×volume; • propelling rate of carbon powder (%)=propelling distance of carbon powder in the intestine (cm)/entire length of intestine (cm)×100%; • rate of gastric remains (%)=(gross weight of stomach−net weight of stomach)/mass of carbon powder gavaged×100%.
(§2) The animals were fasted 29-33 hours before injection, and the animals were not given any water 5-7 hours before injection. Injections were made by subcutaneous administration to the neck, at 0.1 ml/100 g body weight.

Sprague-Dawley (SD) rats = test: stomach emptying in male and female SD rats, various dosages (Example 6); details: for % of Gastric Remains / Gross Weight of Stomach / Propelling Distance of Carbon Powder / Propelling Rate of Carbon Powder: X ± SE
Description: as §1, §2

[2] = female rats, 10 μg/kg subcutaneous
[3] = female rats, 12.5 μg/kg subcutaneous
[4] = female rats, 15 μg/kg subcutaneous
[5] = female rats, 30 μg/kg subcutaneous
[6] = female rats, 45 μg/kg subcutaneous
[7] = female rats, 60 μg/kg subcutaneous
[8] = male rats, 10 μg/kg subcutaneous
[9] = male rats, 12.5 μg/kg subcutaneous
[10] = male rats, 15 μg/kg subcutaneous
[11] = male rats, 30 μg/kg subcutaneous
[12] = male rats, 45 μg/kg subcutaneous
[13] = male rats, 60 μg/kg subcutaneous

**Q.** What does the source list for CC[C@H](C)[C@H](NC(=O)[C@H](Cc1ccccc1)NC(=O)[C@H](CCC(=O)O)NC(=O)[C@H](CCCCN)NC(=O)[C@H](C)NC(=O)[C@H](C)NC(=O)[C@H](CCC(N)=O)NC(=O)CNC(=O)[C@H](CCC(=O)O)NC(=O)[C@H](CC(C)C)NC(=O)[C@H](Cc1ccc(O)cc1)NC(=O)[C@H](CO)NC(=O)[C@H](CO)NC(=O)[C@@H](NC(=O)[C@H](CC(=O)O)NC(=O)[C@H](CO)NC(=O)[C@@H](NC(=O)[C@H](Cc1ccccc1)NC(=O)[C@@H](NC(=O)CNC(=O)[C@H](CCC(=O)O)NC(=O)[C@H](C)NC(=O)[C@@H](N)Cc1cnc[nH]1)[C@@H](C)O)[C@@H](C)O)C(C)C)C(=O)N[C@@H](C)C(=O)N[C@@H](Cc1c[nH]c2ccccc12)C(=O)N[C@@H](CC(C)C)C(=O)N[C@H](C(=O)N[C@@H](CCCCN)C(=O)NCC(=O)N[C@@H](CCCNC(=N)N)C(=O)O)C(C)C [Beinaglutide]?
**A.** Gross Weight of Stomach [1]: 0.56 ± 0.02 g; Propelling Distance of Carbon Powder [1]: 9.00 ± 1.12 cm; Propelling Rate of Carbon Powder [1]: 20.87 ± 2.19%; minimal effective dosage (inhibition of stomach emptying) (Sprague-Dawley (SD) rats; female rats): 10 µg/kg; % of Gastric Remains (Sprague-Dawley (SD) rats; [2]): 36.42 ± 6.50%; Gross Weight of Stomach (Sprague-Dawley (SD) rats; [2]): 1.86 ± 0.14 g; Propelling Distance of Carbon Powder (Sprague-Dawley (SD) rats; [2]): 53.01 ± 3.12 cm; Propelling Rate of Carbon Powder (Sprague-Dawley (SD) rats; [2]): 49.92 ± 2.97 %; % of Gastric Remains (Sprague-Dawley (SD) rats; [3]): 47.54 ± 5.22%; Gross Weight of Stomach (Sprague-Dawley (SD) rats; [3]): 2.03 ± 0.10 g; Propelling Distance of Carbon Powder (Sprague-Dawley (SD) rats; [3]): 49.50 ± 2.54 cm; Propelling Rate of Carbon Powder (Sprague-Dawley (SD) rats; [3]): 46.83 ± 2.41 %; % of Gastric Remains (Sprague-Dawley (SD) rats; [4]): 51.86 ± 6.07%; Gross Weight of Stomach (Sprague-Dawley (SD) rats; [4]): 2.18 ± 0.11 g; Propelling Distance of Carbon Powder (Sprague-Dawley (SD) rats; [4]): 44.50 ± 2.97 cm; Propelling Rate of Carbon Powder (Sprague-Dawley (SD) rats; [4]): 41.26 ± 2.63 %; % of Gastric Remains (Sprague-Dawley (SD) rats; [5]): 73.35 ± 16.68 %; Gross Weight of Stomach (Sprague-Dawley (SD) rats; [5]): 2.59 ± 0.38 g; Propelling Distance of Carbon Powder (Sprague-Dawley (SD) rats; [5]): 33.96 ± 5.58 cm; Propelling Rate of Carbon Powder (Sprague-Dawley (SD) rats; [5]): 32.15 ± 5.54 %; % of Gastric Remains (Sprague-Dawley (SD) rats; [6]): 120.95 ± 9.48 %; Gross Weight of Stomach (Sprague-Dawley (SD) rats; [6]): 3.55 ± 0.21 g; Propelling Distance of Carbon Powder (Sprague-Dawley (SD) rats; [6]): 25.06 ± 5.91 cm; Propelling Rate of Carbon Powder (Sprague-Dawley (SD) rats; [6]): 23.18 ± 5.46 %; % of Gastric Remains (Sprague-Dawley (SD) rats; [7]): 141.28 ± 8.90 %; Gross Weight of Stomach (Sprague-Dawley (SD) rats; [7]): 3.90 ± 0.20 g; Propelling Distance of Carbon Powder (Sprague-Dawley (SD) rats; [7]): 15.71 ± 4.58 cm; Propelling Rate of Carbon Powder (Sprague-Dawley (SD) rats; [7]): 14.36 ± 4.08 %; human dose corresponding to minimal effective dosage (Sprague-Dawley (SD) rats; from female rats 10 μg/kg): 0.11 mg/day; human dose corresponding to minimal effective dosage (Sprague-Dawley (SD) rats; from male rats 30 μg/kg): 0.33 mg/day; minimal effective dosage (inhibition of stomach emptying) (Sprague-Dawley (SD) rats; male rats): 30 µg/kg; % of Gastric Remains (Sprague-Dawley (SD) rats; [8]): 39.93 ± 6.46%; Gross Weight of Stomach (Sprague-Dawley (SD) rats; [8]): 2.39 ± 0.19 g; Propelling Distance of Carbon Powder (Sprague-Dawley (SD) rats; [8]): 55.20 ± 2.69 cm; Propelling Rate of Carbon Powder (Sprague-Dawley (SD) rats; [8]): 50.91 ± 2.84%; % of Gastric Remains (Sprague-Dawley (SD) rats; [9]): 38.98 ± 3.50%; Gross Weight of Stomach (Sprague-Dawley (SD) rats; [9]): 2.36 ± 0.09 g; Propelling Distance of Carbon Powder (Sprague-Dawley (SD) rats; [9]): 54.96 ± 3.96 cm; Propelling Rate of Carbon Powder (Sprague-Dawley (SD) rats; [9]): 50.36 ± 3.34%; % of Gastric Remains (Sprague-Dawley (SD) rats; [10]): 40.22 ± 7.06%; Gross Weight of Stomach (Sprague-Dawley (SD) rats; [10]): 2.42 ± 0.20 g; Propelling Distance of Carbon Powder (Sprague-Dawley (SD) rats; [10]): 52.27 ± 3.75 cm; Propelling Rate of Carbon Powder (Sprague-Dawley (SD) rats; [10]): 48.22 ± 3.05%; % of Gastric Remains (Sprague-Dawley (SD) rats; [11]): 58.23 ± 7.38 %; Gross Weight of Stomach (Sprague-Dawley (SD) rats; [11]): 2.92 ± 0.23 g; Propelling Distance of Carbon Powder (Sprague-Dawley (SD) rats; [11]): 42.82 ± 2.81 cm; Propelling Rate of Carbon Powder (Sprague-Dawley (SD) rats; [11]): 38.55 ± 2.81 %; % of Gastric Remains (Sprague-Dawley (SD) rats; [12]): 97.66 ± 9.95 %; Gross Weight of Stomach (Sprague-Dawley (SD) rats; [12]): 3.90 ± 0.27 g; Propelling Distance of Carbon Powder (Sprague-Dawley (SD) rats; [12]): 15.73 ± 4.30 cm; Propelling Rate of Carbon Powder (Sprague-Dawley (SD) rats; [12]): 14.67 ± 4.13 %; % of Gastric Remains (Sprague-Dawley (SD) rats; [13]): 110.28 ± 7.79 %; Gross Weight of Stomach (Sprague-Dawley (SD) rats; [13]): 4.21 ± 0.19 g; Propelling Distance of Carbon Powder (Sprague-Dawley (SD) rats; [13]): 14.64 ± 4.32 cm; Propelling Rate of Carbon Powder (Sprague-Dawley (SD) rats; [13]): 12.91 ± 3.68 %
